Legend:
Cavia porcellus [1] = species on record: Cavia porcellus; experiment: Inhibitory effect of compound was measured for arterial contraction in guinea pig; type: functional, organism-based
Cavia porcellus [2] = species on record: Cavia porcellus; experiment: Inhibitory effect of compound was measured for platelet aggregation in guinea pig blood; type: functional, organism-based

| IC50 (Cavia porcellus [1]) [µM] | IC50 (Cavia porcellus [2]) [µM] | Compound |
| --- | --- | --- |
| 3 | 0.4 | CN[C@@H]1CC2O[C@@](C)([C@@H]1OC)n1c3ccc(O)cc3c3c4c(c5c6cc(O)ccc6n2c5c31)C(=O)OC4 |
| 30 | 6.8 | CN[C@@H]1CC2O[C@@](C)([C@@H]1OC)n1c3ccccc3c3c(CO)c(CO)c4c5ccccc5n2c4c31 |
| > 10 | 5.4 | CO[C@@H]1[C@H](N(C)C)CC2O[C@]1(C)n1c3ccccc3c3c4c(c5c6ccccc6n2c5c31)C(=O)OC4 |
| > 30 | 6.8 | CN[C@@H]1CC2O[C@@](C)([C@@H]1OC)n1c3ccccc3c3c4c(c5c6ccccc6n2c5c31)C(=O)OC4 |

From ChEMBL document CHEMBL1129139, “Synthesis and activity of staurosporine analogs with a lactone functionality” (Bioorg Med Chem Lett, 1996)
